Test results taken from patent US12594282B2, “Use of small molecule compounds in the treatment of diseases mediated by lung epithelial cell injury and/or vascular endothelial cell injury” (Guangzhou Cellprotek Pharmaceutical Co., Ltd., priority 2020, dated 2026).

Assays:
[1] = test system: NR4A3; assay: NR4A3 ubiquitination after OGD-R in vascular endothelial cells (immunoprecipitation with anti-ubiquitin antibodies); format: cell-based
Method: (§1) HUVEC cells were cultured in modified DMEM medium containing 10% fetal bovine serum. When the cells reached about 80% confluence, the cells were digested with 0.25% trypsin, and then pipetted evenly with modified DMEM containing 10% […]. The cell concentration was adjusted to 1×10^5 cells/mL, and the cells were seeded at 400 uL/well in a 24-well plate, and the experiment was carried out when the cells grew to about 70% confluence. RAOEC cells were cultured in high-glucose DMEM medium containing 10% fetal bovine serum, and the seeding conditions were the same as those of HUVEC. During the OGD-R injury treatment, the hypoxia workstation was set to have an oxygen concentration of 1% (1% O2, 5% CO2, 94% N2), a temperature of 37° C., and a humidity of 85%. A sugar-free DMEM medium was placed in the hypoxia workstation for pre-hypoxia for 3 hours. The medium in the culture plate was aspirated, and the plate was washed twice with preheated sugar-free DMEM medium, and 100 uL of sugar-free DMEM medium was added to each well. The culture plate was placed in the hypoxia workstation, and 300 uL of pre-hypoxic sugar-free DMEM medium was added to each well, and then the culture plate was placed in the hypoxia workstation for additional hypoxia for 4 hours. Restoration was then performed. The culture plate was taken out, and the sugar-free DMEM medium was replaced with 400 uL of normal medium containing 10% fetal bovine serum, and then the plate was placed in a 37° C. 5% CO2 cell incubator for culturing for 24 hours or a specified time period. For the cells in the normal group, it was only replaced with 400 uL of new normal medium containing 10% fetal bovine serum. […]
The cells were washed twice with pre-cooled PBS, then scraped off with a cell scraper and transferred to a 1.5 mL centrifuge tube, and centrifugation was performed at 4° C. and 1000 g for 5 minutes. […] Each protein sample was then quantified using the BCA protein quantification kit. After protein quantification, IP lysis buffer was used to adjust the protein concentration of each sample to 1 mg/mL. […]

[2] = test system: NR4A3 mRNA; assay: NR4A3 mRNA under OGD-R, HUVEC (real-time fluorescent quantitative PCR); format: cell-based, human; conditions: 10 μM given at restoration
Method: as §1, with “performed.” for “performed. The culture plate was taken out, and the sugar-free DMEM medium was replaced with 400 uL of normal medium containing 10% fetal bovine serum, and then the plate was placed in a 37° C. 5% CO2 cell incubator for culturing for 24 hours or a specified time period. For the cells in the normal group, it was only replaced with 400 uL of new normal medium containing 10% fetal bovine serum.”

For `C[C@@]12CCCC1C1C[C@@H](O)[C@]3(O)C[C@@H](O)CC[C@]3(C)C1CC2` (stereo partly drawn) [YC-6, 5α-androst-3β,5,6β-triol], which “ubiquitination of NR4A3 on co-administration with MG132” value ([1]; YC-6 10 μM with MG132 100 nM after restoration) is on record?
Its value is “did not significantly increase the ubiquitination of NR4A3”.

What about the “ubiquitination modification of NR4A3 induced by restoration” value ([1]; YC-6 10 μM, MG132 100 nM, given at restoration) of the same molecule?
The value was “could inhibit the ubiquitination of NR4A3 induced by restoration”.

And the “transcription level of NR4A3 (relative mRNA expression)” value [2]?
The value was “did not significantly up-regulate the transcription level of NR4A3”.
